Measurements published in PubChem BioAssay (NCI).
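All cell lines were grown in 96-well plates and treated with compound for 48 hours. TGI denotes the concentration required for complete inhibition of growth.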

Tests used:
Assay in all cases: NCI-60 cell line screen, 48 h
786-0 renal = system: 786-0 renal
A498 renal = system: A498 renal
A549 NSCLC = system: A549 NSCLC
ACHN renal = system: ACHN renal
BT-549 breast = system: BT-549 breast
CAKI-1 renal = system: CAKI-1 renal
CCRF-CEM leukemia = system: CCRF-CEM leukemia
COLO 205 colon = system: COLO 205 colon
DU-145 prostate = system: DU-145 prostate
EKVX NSCLC = system: EKVX NSCLC
HCC-2998 colon = system: HCC-2998 colon
HCT-116 colon = system: HCT-116 colon
HCT-15 colon = system: HCT-15 colon
HL-60(TB) leukemia = system: HL-60(TB) leukemia
HOP-62 NSCLC = system: HOP-62 NSCLC
HOP-92 NSCLC = system: HOP-92 NSCLC
HS 578T breast = system: HS 578T breast
HT29 colon = system: HT29 colon
IGROV1 ovarian = system: IGROV1 ovarian
K-562 leukemia = system: K-562 leukemia
KM12 colon = system: KM12 colon
LOX IMVI melanoma = system: LOX IMVI melanoma
M14 melanoma = system: M14 melanoma
MALME-3M melanoma = system: MALME-3M melanoma
MCF7 breast = system: MCF7 breast
MDA-MB-231 breast = system: MDA-MB-231 breast
MDA-MB-435 = system: MDA-MB-435
MOLT-4 leukemia = system: MOLT-4 leukemia
NCI-H226 lung = system: NCI-H226 lung
NCI-H23 lung = system: NCI-H23 lung
NCI-H460 lung = system: NCI-H460 lung
NCI-H522 lung = system: NCI-H522 lung
NCI/ADR-RES ovarian = system: NCI/ADR-RES ovarian
OVCAR-3 ovarian = system: OVCAR-3 ovarian
OVCAR-4 ovarian = system: OVCAR-4 ovarian
OVCAR-5 ovarian = system: OVCAR-5 ovarian
OVCAR-8 ovarian = system: OVCAR-8 ovarian
PC-3 prostate = system: PC-3 prostate
RPMI-8226 leukemia = system: RPMI-8226 leukemia
RXF 393 renal = system: RXF 393 renal
SF-268 CNS = system: SF-268 CNS
SF-295 CNS = system: SF-295 CNS
SF-539 CNS = system: SF-539 CNS
SK-MEL-2 melanoma = system: SK-MEL-2 melanoma
SK-MEL-28 melanoma = system: SK-MEL-28 melanoma
SK-MEL-5 melanoma = system: SK-MEL-5 melanoma
SK-OV-3 ovarian = system: SK-OV-3 ovarian
SN12C renal = system: SN12C renal
SNB-19 CNS = system: SNB-19 CNS
SNB-75 CNS = system: SNB-75 CNS
SR leukemia = system: SR leukemia
SW-620 colon = system: SW-620 colon
T-47D breast = system: T-47D breast
TK-10 renal = system: TK-10 renal
U251 CNS = system: U251 CNS
UACC-257 melanoma = system: UACC-257 melanoma
UACC-62 melanoma = system: UACC-62 melanoma
UO-31 renal = system: UO-31 renal

SMILES: CCSc1nc(N2CCOCC2)c2cn[nH]c2n1
- TGI (786-0 renal): > 100 µM
- TGI (A498 renal): 15.9 µM
- TGI (A549 NSCLC): > 100 µM
- TGI (ACHN renal): > 100 µM
- TGI (BT-549 breast): > 100 µM
- TGI (CAKI-1 renal): > 100 µM
- TGI (CCRF-CEM leukemia): > 100 µM
- TGI (COLO 205 colon): > 100 µM
- TGI (DU-145 prostate): > 100 µM
- TGI (EKVX NSCLC): > 100 µM
- TGI (HCC-2998 colon): > 100 µM
- TGI (HCT-116 colon): > 100 µM
- TGI (HCT-15 colon): > 100 µM
- TGI (HL-60(TB) leukemia): > 100 µM
- TGI (HOP-62 NSCLC): > 100 µM
- TGI (HOP-92 NSCLC): > 100 µM
- TGI (HS 578T breast): > 100 µM
- TGI (HT29 colon): > 100 µM
- TGI (IGROV1 ovarian): > 100 µM
- TGI (K-562 leukemia): > 100 µM
- TGI (KM12 colon): > 100 µM
- TGI (LOX IMVI melanoma): > 100 µM
- TGI (M14 melanoma): > 100 µM
- TGI (MALME-3M melanoma): > 100 µM
- TGI (MCF7 breast): > 100 µM
- TGI (MDA-MB-231 breast): > 100 µM
- TGI (MDA-MB-435): > 100 µM
- TGI (MOLT-4 leukemia): > 100 µM
- TGI (NCI-H226 lung): > 100 µM
- TGI (NCI-H23 lung): > 100 µM
- TGI (NCI-H460 lung): > 100 µM
- TGI (NCI-H522 lung): > 100 µM
- TGI (NCI/ADR-RES ovarian): > 100 µM
- TGI (OVCAR-3 ovarian): > 100 µM
- TGI (OVCAR-4 ovarian): > 100 µM
- TGI (OVCAR-5 ovarian): > 100 µM
- TGI (OVCAR-8 ovarian): > 100 µM
- TGI (PC-3 prostate): > 100 µM
- TGI (RPMI-8226 leukemia): > 100 µM
- TGI (RXF 393 renal): > 100 µM
- TGI (SF-268 CNS): > 100 µM
- TGI (SF-295 CNS): > 100 µM
- TGI (SF-539 CNS): > 100 µM
- TGI (SK-MEL-2 melanoma): > 100 µM
- TGI (SK-MEL-28 melanoma): > 100 µM
- TGI (SK-MEL-5 melanoma): > 100 µM
- TGI (SK-OV-3 ovarian): > 100 µM
- TGI (SN12C renal): > 100 µM
- TGI (SNB-19 CNS): > 100 µM
- TGI (SNB-75 CNS): > 100 µM
- TGI (SR leukemia): > 100 µM
- TGI (SW-620 colon): > 100 µM
- TGI (T-47D breast): > 100 µM
- TGI (TK-10 renal): > 100 µM
- TGI (U251 CNS): > 100 µM
- TGI (UACC-257 melanoma): > 100 µM
- TGI (UACC-62 melanoma): > 100 µM
- TGI (UO-31 renal): > 100 µM
